Tested on: IFNγ induced CXCL10 and CXCL9 secretion in EpiAirway tissue cultures
Assay: Inhibition of IFNγ induced chemokines CXCL9 and CXCL10 in human 3D airway cultures
Format: cell-based
Details: 192 h, day 8, ±STDV
Procedure: Assay 7: Inhibition of IFNγ and IL-27 Induced Chemokines CXCL9 and CXCL10 in Human 3D Airway Cultures
EpiAirway tissue cultures were obtained from Mattek (AIR-100). Cultures were derived from asthmatic donors. In a cell culture insert, human derived tracheal/bronchial epithelial cells were grown and differentiated on a porous membrane support, allowing an air-liquid interface with warmed culture medium below the cells and a gaseous test atmosphere above. Tissues were cultured in maintenance media (Mattek, AIR-100-MM) in a 37° C., 5% CO2 humidified incubator. Four donors were tested. On Day 0, tissue cultures were treated with test compounds at 10 μM, 1 μM and/or 0.1 μM. Compounds were diluted in dimethyl sulfoxide (DMSO, Sigma) to a final concentration of 0.1%. DMSO at 0.1% was used as a vehicle control. Test compounds were incubated with cultures for 1 hour at 37° C., 5% CO2, followed by the addition of pre-warmed media containing IFNγ (R&D Systems) or IL-27 (R&D Systems) at a final concentration at 100 ng/ml. Tissue cultures were maintained for 8 days. Media was replaced every 2 days with fresh media containing compounds and IFNγ or IL-27. […] Data is expressed as % Inhibition+/−standard deviation (±STDV). Percent inhibition was determined by compound inhibitory potency against IFNγ or IL-27 induced CXCL10 or CXCL9 secretion compared to vehicle treated cells. […]

`CCc1cc(O)c(F)cc1-c1ccc2c(-c3nc4c([nH]3)CN(C(C)C)[C@H](C(=O)N3CC(N(C)C)C3)C4)n[nH]c2c1` [Example 2, (S)-(3-(dimethylamino)azetidin-1-yl)(2-(6-(2-ethyl-5-fluoro-4-hydroxyphenyl)-1H-indazol-3-yl)-5-isopropyl-4,5,6,7-tetrahydro-3H-imidazo[4,5-c]pyridin-6-yl)methanone] was tested, and the inhibition at 1 µM was 65%.

Reference: patent US10550118B2, “JAK inhibitors containing a 4-membered heterocyclic amide” (THERAVANCE BIOPHARMA R&D IP, LLC, priority 2017, dated 2020)
